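Interpolation was linear, between the two tested concentrations surrounding the appropriate level; five concentrations were tested over 48 hours in 96-well plates. At the GI50, growth is halved. The concentration for full growth arrest is given as TGI.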
Assays:
Experiment in all cases: inhibition of tumour cell growth, NCI panel, 48 h
[1] = test system: CAKI-1 renal
[2] = test system: HCT-116 colon
[3] = test system: 786-0 renal
[4] = test system: PC-3 prostate
[5] = test system: NCI-H460 lung
[6] = test system: RPMI-8226 leukemia
[7] = test system: UO-31 renal
[8] = test system: SK-OV-3 ovarian
[9] = test system: OVCAR-4 ovarian
[10] = test system: SK-MEL-5 melanoma
[11] = test system: HCC-2998 colon
[12] = test system: RXF 393 renal
[13] = test system: UACC-62 melanoma
[14] = test system: MCF7 breast
[15] = test system: IGROV1 ovarian
[16] = test system: SN12C renal
[17] = test system: COLO 205 colon
[18] = test system: LOX IMVI melanoma
[19] = test system: ACHN renal
[20] = test system: SF-539 CNS
[21] = test system: SNB-19 CNS
[22] = test system: CCRF-CEM leukemia
[23] = test system: MOLT-4 leukemia
[24] = test system: OVCAR-8 ovarian
[25] = test system: TK-10 renal
[26] = test system: HOP-92 NSCLC
[27] = test system: NCI-H522 lung
[28] = test system: M14 melanoma
[29] = test system: NCI-H226 lung
[30] = test system: OVCAR-5 ovarian
[31] = test system: DU-145 prostate
[32] = test system: SNB-75 CNS
[33] = test system: HOP-62 NSCLC
[34] = test system: NCI-H23 lung
[35] = test system: U251 CNS
[36] = test system: A549 NSCLC
[37] = test system: MALME-3M melanoma
[38] = test system: MDA-MB-435
[39] = test system: A498 renal
[40] = test system: HT29 colon
[41] = test system: SF-268 CNS
[42] = test system: KM12 colon
[43] = test system: SK-MEL-2 melanoma
[44] = test system: SK-MEL-28 melanoma
[45] = test system: SW-620 colon
[46] = test system: BT-549 breast
[47] = test system: SF-295 CNS
[48] = test system: OVCAR-3 ovarian
[49] = test system: EKVX NSCLC
[50] = test system: T-47D breast
[51] = test system: HS 578T breast
[52] = test system: MDA-MB-231 breast
[53] = test system: UACC-257 melanoma
[54] = test system: HCT-15 colon
[55] = test system: K-562 leukemia

SMILES: CC1SC(c2ccc(Cl)c(Cl)c2)N(NC(=O)C(O)c2ccccc2)C1=O (stereo not given)
- GI50 [1]: 30.7 µM
- TGI [1]: > 100 µM
- GI50 [2]: 43.2 µM
- TGI [2]: > 100 µM
- GI50 [3]: 79.6 µM
- TGI [3]: > 100 µM
- GI50 [4]: 35 µM
- TGI [4]: > 100 µM
- GI50 [5]: 33.5 µM
- TGI [5]: > 100 µM
- GI50 [6]: 25 µM
- TGI [6]: 66 µM
- GI50 [7]: 36.6 µM
- TGI [7]: > 100 µM
- GI50 [8]: > 100 µM
- TGI [8]: > 100 µM
- GI50 [9]: 32.6 µM
- TGI [9]: 91.2 µM
- GI50 [10]: 38.1 µM
- TGI [10]: > 100 µM
- GI50 [11]: 36.9 µM
- TGI [11]: > 100 µM
- GI50 [12]: 30.3 µM
- TGI [12]: 83.2 µM
- GI50 [13]: 25.2 µM
- TGI [13]: 86.1 µM
- GI50 [14]: 47.1 µM
- TGI [14]: > 100 µM
- GI50 [15]: 28.5 µM
- TGI [15]: 74.6 µM
- GI50 [16]: 44.1 µM
- TGI [16]: > 100 µM
- GI50 [17]: 44.7 µM
- TGI [17]: > 100 µM
- GI50 [18]: 55.2 µM
- TGI [18]: > 100 µM
- GI50 [19]: 33.3 µM
- TGI [19]: > 100 µM
- GI50 [20]: 72.6 µM
- TGI [20]: > 100 µM
- GI50 [21]: 93.2 µM
- TGI [21]: > 100 µM
- GI50 [22]: 55.1 µM
- TGI [22]: > 100 µM
- GI50 [23]: 26.6 µM
- TGI [23]: 82.2 µM
- GI50 [24]: 34.1 µM
- TGI [24]: > 100 µM
- GI50 [25]: 41.3 µM
- TGI [25]: > 100 µM
- GI50 [26]: 40.8 µM
- TGI [26]: > 100 µM
- GI50 [27]: 28.4 µM
- TGI [27]: 98.5 µM
- GI50 [28]: 42.5 µM
- TGI [28]: > 100 µM
- GI50 [29]: 33.6 µM
- TGI [29]: > 100 µM
- GI50 [30]: 70.1 µM
- TGI [30]: > 100 µM
- GI50 [31]: 59.2 µM
- TGI [31]: > 100 µM
- GI50 [32]: 24.8 µM
- TGI [32]: 90.1 µM
- GI50 [33]: 85.1 µM
- TGI [33]: > 100 µM
- GI50 [34]: 33.3 µM
- TGI [34]: > 100 µM
- GI50 [35]: 41 µM
- TGI [35]: > 100 µM
- GI50 [36]: 29.6 µM
- TGI [36]: 85.4 µM
- GI50 [37]: 46.2 µM
- TGI [37]: > 100 µM
- GI50 [38]: 41.8 µM
- TGI [38]: > 100 µM
- GI50 [39]: 77.1 µM
- TGI [39]: > 100 µM
- GI50 [40]: 32.3 µM
- TGI [40]: > 100 µM
- GI50 [41]: 55.7 µM
- TGI [41]: > 100 µM
- GI50 [42]: 42.6 µM
- TGI [42]: > 100 µM
- GI50 [43]: 45.4 µM
- TGI [43]: > 100 µM
- GI50 [44]: 38.5 µM
- TGI [44]: > 100 µM
- GI50 [45]: 77.2 µM
- TGI [45]: > 100 µM
- GI50 [46]: 45 µM
- TGI [46]: > 100 µM
- GI50 [47]: 24.5 µM
- TGI [47]: 67.5 µM
- GI50 [48]: 25.9 µM
- TGI [48]: 77.6 µM
- GI50 [49]: 43.7 µM
- TGI [49]: > 100 µM
- GI50 [50]: 67.5 µM
- TGI [50]: > 100 µM
- GI50 [51]: 51.1 µM
- TGI [51]: > 100 µM
- GI50 [52]: 31.3 µM
- TGI [52]: > 100 µM
- GI50 [53]: 35.1 µM
- TGI [53]: > 100 µM
- GI50 [54]: 45.5 µM
- TGI [54]: > 100 µM
- GI50 [55]: 57.1 µM
- TGI [55]: > 100 µM

Source: PubChem BioAssay (NCI)
